Holding throughout (type): biochemical
The target in one assay is T1, μ opioid receptor (Homo sapiens, UniProt P35372).
T1 construct: expressed in transfected cells
Kind of assay: Inhibition of DAMGO-stimulated [35S]GTPγS binding.

The target of the next assay is T2, κ opioid receptor (Homo sapiens, UniProt P41145).
T2 construct: expressed in transfected cells
In words: Inhibition of U69,593-stimulated [35S]GTPγS binding. The conditions noted are these: for δ/κ (selectivity for κ relative to δ): ratio of Ke values δ/κ; for δ/κ (selectivity for κ relative to δ) / μ/κ (selectivity for κ relative to μ): fold; for μ/κ (selectivity for κ relative to μ): ratio of Ke values μ/κ. (GTPγS resists hydrolysis and so accumulates on activated G proteins.)

In a further assay the target is T3, δ opioid receptor (Homo sapiens, UniProt P41143).
T3 construct: expressed in transfected cells
Kind of assay: Inhibition of DPDPE-stimulated [35S]GTPγS binding.

Setting [1] is: cloned human μ receptor, agonist DAMGO, [35S]GTPγS binding, read-out: μ, DAMGO Ke.
[2] abbreviates: cloned human κ receptor, agonist U69,593, [35S]GTPγS binding, read-out: κ, U69,593 Ke.
Where [3] appears, read: cloned human δ receptor, agonist DPDPE, [35S]GTPγS binding, read-out: δ, DPDPE Ke.

Like-named read-outs stand apart in the source and are kept apart here.

T3 sequence (P41143 whole entry): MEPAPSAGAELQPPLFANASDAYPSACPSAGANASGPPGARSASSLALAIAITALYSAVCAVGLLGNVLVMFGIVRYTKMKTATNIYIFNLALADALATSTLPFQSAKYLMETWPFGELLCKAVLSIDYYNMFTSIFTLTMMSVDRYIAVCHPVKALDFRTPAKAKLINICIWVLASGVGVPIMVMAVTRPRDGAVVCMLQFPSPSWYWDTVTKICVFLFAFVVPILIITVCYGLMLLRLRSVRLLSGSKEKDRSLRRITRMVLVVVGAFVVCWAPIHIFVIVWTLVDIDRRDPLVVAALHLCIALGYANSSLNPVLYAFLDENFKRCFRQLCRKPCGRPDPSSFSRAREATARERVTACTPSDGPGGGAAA
T1 sequence (P35372 whole entry): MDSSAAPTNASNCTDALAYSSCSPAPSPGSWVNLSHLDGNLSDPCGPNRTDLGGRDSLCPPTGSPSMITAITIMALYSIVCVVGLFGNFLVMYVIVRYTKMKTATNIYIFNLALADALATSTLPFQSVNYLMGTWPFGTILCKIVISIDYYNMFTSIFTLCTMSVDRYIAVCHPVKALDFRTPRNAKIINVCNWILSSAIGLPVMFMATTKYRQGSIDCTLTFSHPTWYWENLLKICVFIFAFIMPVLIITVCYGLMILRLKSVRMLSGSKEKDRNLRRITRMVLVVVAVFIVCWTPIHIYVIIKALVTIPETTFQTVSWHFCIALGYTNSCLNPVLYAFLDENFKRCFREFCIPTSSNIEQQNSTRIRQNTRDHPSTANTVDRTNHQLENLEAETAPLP
T2 sequence (P41145 whole entry): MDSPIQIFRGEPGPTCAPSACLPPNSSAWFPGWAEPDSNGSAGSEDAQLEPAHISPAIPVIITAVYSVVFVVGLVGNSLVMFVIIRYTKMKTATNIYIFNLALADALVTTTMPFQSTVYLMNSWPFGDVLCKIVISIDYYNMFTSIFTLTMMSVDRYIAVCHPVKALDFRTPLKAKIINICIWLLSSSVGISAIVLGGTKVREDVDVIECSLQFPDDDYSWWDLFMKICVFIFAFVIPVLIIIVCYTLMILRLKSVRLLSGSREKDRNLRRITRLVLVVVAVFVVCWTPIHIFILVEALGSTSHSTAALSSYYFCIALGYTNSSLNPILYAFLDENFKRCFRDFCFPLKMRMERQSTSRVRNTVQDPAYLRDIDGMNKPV

On to `CC1CCC(C[C@@H](NC(=O)[C@H]2Cc3ccc(O)cc3CN2)C(C)C)CC1` (stereo partly drawn) [Compound 66, (3R)-7-Hydroxy-N-{(1R)-2-methyl-1-[(4-methylcyclohexyl)methyl]propyl}-1,2,3,4-tetrahydroisoquinoline-3-carboxamide], for which, on μ opioid receptor (setting [1]), the Kb turned out to be 221 ± 41 nM.
On to `CC(C)[C@@H](CN1CCC(C(F)F)CC1)NC(=O)[C@H]1Cc2ccc(O)cc2CN1` [Compound 59, (3R)—N-[(1S)-1-{[4-(Difluoromethyl)piperidin-1-yl]methyl}-2-methylpropyl]-7-hydroxy-1,2,3,4-tetrahydroisoquinoline-3-carboxamide], for which the Kb at κ opioid receptor (setting [2]) amounted to 3.45 ± 1.2 nM; at μ opioid receptor (setting [1]), 70.9 ± 9.4 nM.
Turning to `CC(C)[C@@H](CC1CCCC1)NC(=O)[C@H]1Cc2ccc(O)cc2CN1` [Compound 40, (3R)—N-[(1R)-1-(Cyclopentylmethyl)-2-methylpropyl]-7-hydroxy-1,2,3,4-tetrahydroisoquinoline-3-carboxamide], the values for the Kb on δ opioid receptor (setting [3]) and on μ opioid receptor (setting [1]) were 1570 ± 380 nM and 344 ± 100 nM, respectively.
Consider `CC(C)CN(CC(C)C)C[C@@H](NC(=O)[C@H]1Cc2ccc(O)cc2CN1)C(C)C` [Compound 10, (3R)—N-{(1S)-1-{[Bis(2-methylpropyl)amino]methyl}-2-methylpropyl]-7-hydroxy-1,2,3,4-tetrahydroisoquinoline-3-carboxamide], for which, on κ opioid receptor (setting [2]), the Kb turned out to be 137 ± 24 nM.
Take `CC(C)[C@@H](CN1CCN(C)CC1)NC(=O)[C@H]1Cc2ccc(O)cc2CN1` [Compound 19, (3R)-7-Hydroxy-N-{(1S)-2-methyl-1-[(4-methylpiperizin-1-yl)methyl]propyl}-1,2,3,4-tetrahydroisoquinoline-3-carboxamide]: the Kb on κ opioid receptor (setting [2]) came to 98.8 ± 28 nM. At κ opioid receptor, the “δ/κ (selectivity for κ relative to δ)” value was above 333 and the “μ/κ (selectivity for κ relative to μ)” value was 9. At μ opioid receptor (setting [1]), the Kb came to 915 ± 303 nM.
As for `CCN(CC)C[C@@H](NC(=O)[C@H]1Cc2ccc(O)cc2CN1)C(C)C` [Compound 11, (3R)—N-{(1S)-1-[(4,4-Diethylamino)methyl]-2-methylpropyl]-7-hydroxy-1,2,3,4-tetrahydroisoquinoline-3-carboxamide], the Kb on δ opioid receptor (setting [3]) is listed as above 3000 nM. The “κ, U69,593 Ke” value at κ opioid receptor (cloned human κ receptor, agonist U69,593, [35S]GTPγS binding) is 41.8 ± 12 nM. Besides, on κ opioid receptor, the “δ/κ (selectivity for κ relative to δ)” value is given as above 72 and the “μ/κ (selectivity for κ relative to μ)” value was found to be 16.5. The “μ, DAMGO Ke” value on μ opioid receptor (cloned human μ receptor, agonist DAMGO, [35S]GTPγS binding) came out at 690 ± 110 nM.
For `CC(C)[C@@H](CN1CCCCC1C)NC(=O)[C@H]1Cc2ccc(O)cc2CN1` (stereo partly drawn) [Compound 12, (3R)-7-Hydroxy-N-{(1S)-2-methyl-1-[(2-methylpiperidin-1-yl)methyl]propyl}-1,2,3,4-tetrahydroisoquinoline-3-carboxamide], the Kb at κ opioid receptor (setting [2]) is 15.1 ± 4.2 nM. In addition, at κ opioid receptor, the “δ/κ (selectivity for κ relative to δ)” value is listed as 199 and the “μ/κ (selectivity for κ relative to μ)” value came out at 3. In addition, the Kb on μ opioid receptor (setting [1]) was determined as 44.9 ± 11 nM.
In the case of `CC1CCN(C[C@H](C(C)C)N(C)C(=O)[C@H]2Cc3ccc(O)cc3CN2)CC1` [Compound 30, (3R)-7-Hydroxy-N-methyl-N-{(1S)-2-methyl-1-[(4-methylpiperidin-1-yl)methyl]propyl}-1,2,3,4-tetrahydroisoquinoline-3-carboxamide], the Kb on δ opioid receptor (setting [3]) was above 3000 nM; at κ opioid receptor (setting [2]) it was 88.4 ± 17 nM; at μ opioid receptor, 406 ± 86 nM. Besides, the “δ/κ (selectivity for κ relative to δ)” value at κ opioid receptor turned out to be 34. Further, at κ opioid receptor, the “μ/κ (selectivity for κ relative to μ)” value amounted to 4.6.
On to `CC(C)[C@@H](CN1CCC(N(C)C)CC1)NC(=O)[C@H]1Cc2ccc(O)cc2CN1` [Compound 58, (3R)—N-[(1S)-1-{[4-(Dimethylamino)piperidin-1-yl]methyl}-2-methylpropyl]-7-hydroxy-1,2,3,4-tetrahydroisoquinoline-3-carboxamide], for which the results for the Kb on κ opioid receptor (setting [2]) and on μ opioid receptor (setting [1]) were 8.08 ± 1.2 nM and 318 ± 8.4 nM, respectively. At κ opioid receptor, the “δ/κ (selectivity for κ relative to δ)” value is on record as above 371. Besides, the “μ/κ (selectivity for κ relative to μ)” value at κ opioid receptor is reported as 39.
For `CC1CCN(C[C@H](C(C)C)N(C)C[C@H]2Cc3ccc(O)cc3CN2)CC1` [Compound 53, (3R)-3-[(Methyl{(1S)-2-methyl-1-[(4-methylpiperidin-1-yl)methyl]propyl}amino)methyl]-1,2,3,4-tetrahydroisoquinolin-7-ol], the Kb is above 3000 nM at δ opioid receptor (setting [3]), 18.4 ± 2 nM at κ opioid receptor (setting [2]) and 647 ± 150 nM on μ opioid receptor. The “δ/κ (selectivity for κ relative to δ)” value on κ opioid receptor was above 163. Further, the “μ/κ (selectivity for κ relative to μ)” value at κ opioid receptor was 35.
Take `COC1CCN(C[C@@H](NC(=O)[C@H]2Cc3ccc(O)cc3CN2)C(C)C)CC1` [Compound 13, (3R)-7-Hydroxy-N-{(1S)-2-methyl-1-[(4-methoxypiperidin-1-yl)methyl]propyl}-1,2,3,4-tetrahydroisoquinoline-3-carboxamide]: the Kb on κ opioid receptor (setting [2]) came to 6.53 ± 1.8 nM. On κ opioid receptor, the “δ/κ (selectivity for κ relative to δ)” value was above 459 and the “μ/κ (selectivity for κ relative to μ)” value is listed as 30. Further, at μ opioid receptor (setting [1]), the Kb was 198 ± 48 nM.
For the molecule `CC(C)[C@@H](CN1CCC(C(N)=O)CC1)NC(=O)[C@H]1Cc2ccc(O)cc2CN1` [Compound 22], at κ opioid receptor (setting [2]), the Kb stood at 3.22 ± 0.78 nM. Also, on κ opioid receptor, the “δ/κ (selectivity for κ relative to δ)” value worked out at 932 and the “μ/κ (selectivity for κ relative to μ)” value amounted to 43. The Kb at μ opioid receptor (setting [1]) stood at 129 ± 26 nM.
Regarding `CCC1CCN(C[C@@H](NC(=O)[C@H]2Cc3ccc(O)cc3CN2)C(C)C)CC1` [Compound 24, (3R)—N-{(1S)-1-[(4-Ethylpiperidin-1-yl)methyl]-2-methylpropyl}-7-hydroxy-1,2,3,4-tetrahydroisoquinoline-3-carboxamide], the Kb on δ opioid receptor (setting [3]) worked out at 2490 ± 620 nM; at κ opioid receptor (setting [2]) it was 2.48 ± 0.7 nM; on μ opioid receptor (setting [1]), 74.8 ± 23 nM. Besides, the “δ/κ (selectivity for κ relative to δ)” value on κ opioid receptor is recorded as 1004. Besides, on κ opioid receptor, the “μ/κ (selectivity for κ relative to μ)” value is 30.
As for `CC(C)[C@@H](CN1CCC(F)(F)CC1)NC(=O)[C@H]1Cc2ccc(O)cc2CN1` [Compound 54, (3R)—N-{[(1S)-1-[4,4-Difluoropiperidin-1-yl]methyl]-2-methylpropyl}-7-hydroxy-1,2,3,4-tetrahydroisoquinoline-3-carboxamide], the Kb was 11.8 ± 3 nM at κ opioid receptor (setting [2]) and 604 ± 83 nM on μ opioid receptor (setting [1]). Further, the “δ/κ (selectivity for κ relative to δ)” value at κ opioid receptor is listed as above 254. In addition, at κ opioid receptor, the “μ/κ (selectivity for κ relative to μ)” value came out at 51.
For the molecule `CC(C)[C@@H](CO)NC(=O)[C@H]1Cc2ccc(O)cc2CN1` [Compound 4, (3R)-7-Hydroxy-N-[(1S)-1-(hydroxymethyl)-2-methylpropyl]-1,2,3,4-tetrahydroisoquinoline-3-carboxamide], the Kb on δ opioid receptor is above 3000 nM; on κ opioid receptor (κ, U69,593 Ke, cloned human κ receptor, agonist U69,593, [35S]GTPγS binding) it was 39.1 ± 3.8 nM; on μ opioid receptor, above 3000 nM. At κ opioid receptor, the “δ/κ (selectivity for κ relative to δ)” value is above 76. Moreover, the “μ/κ (selectivity for κ relative to μ)” value at κ opioid receptor was above 76.
Regarding `CC(C)[C@@H](CN1CCOCC1)NC(=O)[C@H]1Cc2ccc(O)cc2CN1` [Compound 5, (3R)-7-Hydroxy-N-[(1S)-2-methyl-1-(morpholin-4-ylmethyl)propyl]-1,2,3,4-tetrahydroisoquinoline-3-carboxamide], the Kb at κ opioid receptor (setting [2]) came to 396 ± 140 nM.
Take `CC(C)[C@@H](CN1CCC(C)(C)CC1)NC(=O)[C@H]1Cc2ccc(O)cc2CN1` [Compound 9, (3R)—N-{(1S)-1-[(4,4-Dimethylpiperidin-1-yl)methyl]-2-methylpropyl}-7-hydroxy-1,2,3,4-tetrahydroisoquinoline-3-carboxamide]: the Kb on δ opioid receptor (setting [3]) came to 847 nM; on κ opioid receptor (setting [2]), 2.09 ± 0.42 nM; on μ opioid receptor (setting [1]), 142 nM. In addition, the “δ/κ (selectivity for κ relative to δ)” value at κ opioid receptor is recorded as 405. The “μ/κ (selectivity for κ relative to μ)” value on κ opioid receptor was found to be 68.
With `CC(C)[C@@H](CN1CCC(C(F)(F)F)CC1)NC(=O)[C@H]1Cc2ccc(O)cc2CN1` [Compound 14, (3R)-7-Hydroxy-N-[(1S)-2-methyl-1-{[4-(trifluoromethyl)piperidin-1-yl]methyl}propyl]-1,2,3,4-tetrahydroisoquinoline-3-carboxamide], at κ opioid receptor (setting [2]), the Kb was 4.69 ± 0.29 nM. Moreover, on κ opioid receptor, the “δ/κ (selectivity for κ relative to δ)” value is above 640 and the “μ/κ (selectivity for κ relative to μ)” value stood at 14. Also, the Kb on μ opioid receptor (setting [1]) is 67.9 ± 12 nM.
Regarding `O=C(NCCc1ccccc1)[C@H]1Cc2ccc(O)cc2CN1` [Compound 56, (3R)-7-Hydroxy-N-(2-phenylethyl)-1,2,3,4-tetrahydroisoquinoline-3-carboxamide], the Kb is above 3000 nM at δ opioid receptor (setting [3]) and 277 ± 77 nM on μ opioid receptor.
As for `CC(C)[C@@H](CN1CCCCC1)NC(=O)[C@H]1Cc2ccc(O)cc2CN1` [Compound 3, (3R)-7-Hydroxy-N-[(1S)-2-methyl-1-(piperidin-1-ylmethyl)propyl]-1,2,3,4-tetrahydroisoquinoline-3-carboxamide], the Kb on δ opioid receptor was above 3000 nM.
In the case of `CC(C)[C@@H](CN1CCC(C#N)CC1)NC(=O)[C@H]1Cc2ccc(O)cc2CN1` [Compound 39, (3R)—N-{(1S)-1-[(4-Cyanopiperidin-1-yl)methyl]-2-methylprolyl}-7-hydroxy-1,2,3,4-tetrahydroisoquinoline-3-carboxamide], the Kb on κ opioid receptor (setting [2]) stood at 12.7 ± 3.1 nM. In addition, on κ opioid receptor, the “δ/κ (selectivity for κ relative to δ)” value is on record as above 236 and the “μ/κ (selectivity for κ relative to μ)” value turned out to be 51. For the same molecule, at μ opioid receptor (setting [1]), the Kb turned out to be 647 ± 150 nM.
